The values below come from patent US5331090A, “CR2 ligand compositions and methods for modulating immune cell functions” (California Institute of Biological Research, priority 1989, dated 1994).

No end group written: not given here.

This assay addresses T1, CR2 receptor on Raji cells (Homo sapiens, UniProt P20023).
T1 construct: endogenous in cells; host or cells: Raji cells (human B lymphoblastoid, ATCC CCL 86)
T1 sequence (P20023 21-1033): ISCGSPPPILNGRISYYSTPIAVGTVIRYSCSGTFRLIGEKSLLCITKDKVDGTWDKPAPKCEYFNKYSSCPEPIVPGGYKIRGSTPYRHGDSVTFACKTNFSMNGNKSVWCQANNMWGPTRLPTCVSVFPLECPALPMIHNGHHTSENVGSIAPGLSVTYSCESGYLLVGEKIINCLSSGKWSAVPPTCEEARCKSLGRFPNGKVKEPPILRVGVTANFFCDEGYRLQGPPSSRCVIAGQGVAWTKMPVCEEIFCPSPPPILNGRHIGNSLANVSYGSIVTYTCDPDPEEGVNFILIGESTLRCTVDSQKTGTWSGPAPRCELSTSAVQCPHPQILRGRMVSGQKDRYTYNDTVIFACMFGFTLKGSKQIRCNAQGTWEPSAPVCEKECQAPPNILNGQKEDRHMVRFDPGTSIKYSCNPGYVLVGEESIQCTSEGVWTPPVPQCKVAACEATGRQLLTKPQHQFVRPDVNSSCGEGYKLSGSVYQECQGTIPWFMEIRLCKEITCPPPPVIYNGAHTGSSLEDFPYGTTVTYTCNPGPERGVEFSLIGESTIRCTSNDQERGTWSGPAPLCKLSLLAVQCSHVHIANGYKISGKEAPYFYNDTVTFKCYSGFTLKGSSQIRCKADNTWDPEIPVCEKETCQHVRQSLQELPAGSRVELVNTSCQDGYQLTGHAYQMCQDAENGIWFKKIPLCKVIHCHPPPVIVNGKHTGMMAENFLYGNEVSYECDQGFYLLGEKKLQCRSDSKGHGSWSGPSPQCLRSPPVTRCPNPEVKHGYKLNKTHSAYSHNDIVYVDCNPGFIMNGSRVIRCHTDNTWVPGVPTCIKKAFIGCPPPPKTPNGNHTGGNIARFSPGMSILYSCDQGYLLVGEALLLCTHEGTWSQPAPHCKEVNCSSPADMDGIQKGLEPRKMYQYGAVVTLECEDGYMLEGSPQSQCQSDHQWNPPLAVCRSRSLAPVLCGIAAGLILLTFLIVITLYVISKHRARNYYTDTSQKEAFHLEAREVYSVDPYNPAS
In words: Inhibition of direct binding of C3-coated Zymosan to cells (rosette count). The following applies: polypeptide zero to 200 ug in 100 ul, 37 C 30 min, amount behind the value not stated. The procedure:
Fresh blood from a healthy donor was collected and maintained at room temperature for 2 hours. Then the blood was centrifuged at 2000 x g for about 10 min and the resulting supernatant was collected. Five mg of Zymosan A particles (Sigma Chemical Co., St. Louis, Mo.) were boiled for 30 min in 20 ml of 150 mM NaCl and washed three times in phosphate-buffered saline (PBS) to form activated Zymosan. One mg of activated Zymosan particles was admixed with 0.5 ml of blood supernatant and maintained at 37 C. for 30 min, and then was washed 3 times in PBS. The washed particles were then resuspended in PBS at a concentration of 0.5 mg/ml to form a C3 -coated Zymosan composition.
Cultures containing 10^5 Raji or HSB2 cells were admixed with varying amounts (zero to 200 ug) of the polypeptides shown in Table 2 in a volume of 100 microliters (ul) of culture medium and the admixture was maintained at 37C for 30 min to allow CR2 ligand polypeptides to bind any CR2 receptor present on the cells. Thereafter, 50 ul of C3 -coated Zymosan composition was added to each culture, the cultures were subjected to centrifugation for 1 min at 600×g and then maintained at 37 C. for 30 min. The maintained cultures were then washed with prewarmed culture medium to rinse off non-bound particles. Washed cultures were observed using a microscope to detect and count the number of particles (rosettes) attached per cell. More than 3 rosettes per cell was counted as C3 specific binding. Inhibition is expressed as the percent decrease in bound rosettes when comparing binding in the presence or absence of admixed polypeptide.
On to LYNVEAT [LYNVEAT], for which the “Inhibition of direct binding of C3-coated Zymosan to cells (percent decrease in bound rosettes)” value amounted to 70%.
The figure for SRRGDMS [SRRGDMS] is 0%.
As for NSGVEA [NSGVEA], the “Inhibition of direct binding of C3-coated Zymosan to cells (percent decrease in bound rosettes)” value is 35%.
